This experiment addresses T1, Disintegrin and metalloproteinase domain-containing protein 17 [215-477,S266A,N452Q] (Homo sapiens, UniProt P78536, N452Q/S266A).
T1 construct: 215-477
As to the kind of experiment: TACE Inhibition Assay. The conditions noted are these: pH 7.5; 22 °C. Here is the method:
The compounds were tested for TACE inhibition using fluorescence resonance energy transfer (FRET) assay. TACE catalyzed cleavage of the substrate peptide liberates the fluoropore from the proximity of the adjacent quenching moiety, and an increase in fluorescence signal results.

T1 sequence (P78536 215-477 S266A/N452Q): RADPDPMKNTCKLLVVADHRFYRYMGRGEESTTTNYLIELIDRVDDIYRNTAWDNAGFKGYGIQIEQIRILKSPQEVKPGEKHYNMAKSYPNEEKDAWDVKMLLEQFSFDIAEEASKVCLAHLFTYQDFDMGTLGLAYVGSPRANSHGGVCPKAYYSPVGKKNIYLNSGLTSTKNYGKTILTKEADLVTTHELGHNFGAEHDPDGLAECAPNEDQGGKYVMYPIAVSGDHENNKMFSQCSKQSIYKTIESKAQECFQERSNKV

As a reminder, the Ki is a measure of affinity in units of concentration, obtained from inhibition or displacement. The low end stands for tighter binding, the high end for weaker binding. Compound `CC#CCOc1ccc(S(=O)(=O)N(C)CCS)cc1` [4-(but-2-yn-1-yloxy)-N-methyl-N-(2-sulfanylethyl)benzene-1-sulfonamide] showed a Ki of 56 nM.

Source of the values: BindingDB's records for doi:10.1016/j.bmcl.2007.01.064 (Vertex Pharmaceuticals, 2007).
